Experimental data as given in US9938322B2, “β-hairpin peptidomimetics” (priority 2013, dated 2018).
*1 amine or outer side, *2 acyl side, *3 side chain or, on linkers, in order; H or OH if unused. Where a SMILES comes first, the peptide text is derived from it. Side-chain parts run from the residue outwards. [ ]: non-standard residue; d: D form. The star is where a group is joined. Ala(thiazol-2-yl) = N[C@@H](Cc1nccs1)C(=O)O; Abu(4,4,4-F3) = N[C@@H](CC(F)(F)F)C(=O)O; Tic(7-OH) = O=C(O)[C@@H]1Cc2ccc(O)cc2CN1; Pro(3S-OH) = O=C(O)[C@H]1NCC[C@@H]1O; Dap(CONH2) = NC(=O)NC[C@H](N)C(=O)O; Cha = N[C@@H](CC1CCCCC1)C(=O)O; Chg = N[C@H](C(=O)O)C1CCCCC1; Tle = CC(C)(C)[C@H](N)C(=O)O; dDab = NCC[C@@H](N)C(=O)O; Orn = NCCC[C@H](N)C(=O)O; Dab = NCC[C@H](N)C(=O)O; Nva = CCC[C@H](N)C(=O)O; Dap = NC[C@H](N)C(=O)O; CO = O=C([*:1])[*:2]; X3 = O=C(C(O)CO)*; NHiPr = CC(C)N*

test system: human red blood cells (hRBC); assay: Hemolysis of human red blood cells; type: cell-based; conditions: red cells of human, 1 h, 100
Procedure: Lyophilized peptides were weighed on a Microbalance (Mettler MT5) and dissolved in sterile water to a final concentration of 1 mg/ml. Stock solutions were kept at +4° C., light protected.
The peptides were tested for their hemolytic activity against human red blood cells (hRBC). Fresh hRBC were washed three times with phosphate buffered saline (PBS) and centrifuged for 10 min at 2000×g. Compounds (100 μg/ml) were incubated with 20% hRBC (v/v) for 1 h at 37° C. and shaking at 300 rpm. The final erythrocyte concentration was approximately 0.9×10^9 cells/ml. A value of 0% and 100% cell lyses, respectively, was determined by incubation of hRBC in the presence of PBS containing 0.001% acetic acid and 2.5% Triton X-100 in H2O, respectively. The samples were centrifuged, the supernatants were 8-fold diluted in PBS buffer and the optical densities (OD) were measured at 540 nm. The 100% lyses value (OD540H2O) gave an OD540 of approximately 0.5-1.0.
Percent hemolysis was calculated as follows: (OD540peptide/OD540H2O)×100%.

In order of falling “Hemolysis at 100 μg/ml” value:
1. C[C@@H]1NC(=O)[C@H](Cc2c[nH]c3ccccc23)NC(=O)[C@@H]2CCCN2C(=O)[C@H]2CCCN2C(=O)[C@H](CO)NC(=O)[C@H](Cc2nccs2)NC(=O)[C@H](C(C)(C)C)NC(=O)[C@H](CCN)NC(=O)[C@H](Cc2c[nH]c3ccccc23)NC(=O)[C@H](CCN)NC(=O)[C@@H](CCN)NC(=O)[C@H](CCCN)NC(=O)[C@H](CCN)NC(=O)[C@H](CC2CCCCC2)NC1=O [compound 7] (cyclo(WA[Cha][Dab][Orn][dDab][Dab]W[Dab][Tle][Ala(thiazol-2-yl)]S[dP]P))  8%
2. CCC[C@@H]1NC(=O)[C@@H]2CCCN2C(=O)[C@H]2CCCN2C(=O)[C@H](CO)NC(=O)[C@H](C)NC(=O)[C@H](CC2CCCCC2)NC(=O)[C@H](CCN)NC(=O)[C@H](Cc2c[nH]c3ccccc23)NC(=O)[C@H](CCN)NC(=O)[C@@H](CCN)NC(=O)[C@H](CCCN)NC(=O)[C@H](CCN)NC(=O)[C@H](C(C)(C)C)NC(=O)[C@H](CO)NC1=O [compound 141] (cyclo([Nva]S[Tle][Dab][Orn][dDab][Dab]W[Dab][Cha]AS[dP]P))  8%
3. CC(C)C[C@@H]1NC(=O)[C@@H]2CCCN2C(=O)[C@H]2CCCN2C(=O)[C@H](CO)NC(=O)[C@H](C)NC(=O)[C@H](C2CCCCC2)NC(=O)[C@H](CCN)NC(=O)[C@H](Cc2c[nH]c3ccccc23)NC(=O)[C@H](CCN)NC(=O)[C@@H](CCN)NC(=O)[C@H](CCCN)NC(=O)[C@H](CCN)NC(=O)[C@H](Cc2ccc(O)cc2)NC(=O)[C@H](CO)NC1=O [compound 29] (cyclo(LSY[Dab][Orn][dDab][Dab]W[Dab][Chg]AS[dP]P))  6%
4. CC(C)NC(=O)NC[C@@H]1NC(=O)[C@H](C)NC(=O)[C@H](C(C)(C)C)NC(=O)[C@H](CCN)NC(=O)[C@H](Cc2c[nH]c3ccccc23)NC(=O)[C@H](CCN)NC(=O)[C@@H](CCN)NC(=O)[C@H](CCCN)NC(=O)[C@H](CCN)NC(=O)[C@H](CC2CCCCC2)NC(=O)[C@H](C)NC(=O)[C@H](Cc2c[nH]c3ccccc23)NC(=O)[C@@H]2CCCN2C(=O)[C@H]2CCCN2C1=O [compound 20] (cyclo(WA[Cha][Dab][Orn][dDab][Dab]W[Dab][Tle]A[Dap]([CO-NHiPr])[dP]P))  4%
5. CC(C)C[C@@H]1NC(=O)[C@@H]2CCCN2C(=O)[C@H]2CCCN2C(=O)[C@H]([C@@H](C)O)NC(=O)[C@H](CO)NC(=O)[C@H](C(C)(C)C)NC(=O)[C@H](CCN)NC(=O)[C@H](Cc2c[nH]c3ccccc23)NC(=O)[C@H](CCN)NC(=O)[C@@H](CCN)NC(=O)[C@H](CCN)NC(=O)[C@H](CCN)NC(=O)[C@H](Cc2ccc(O)cc2)NC(=O)[C@H](CN)NC1=O [compound 149] (cyclo(L[Dap]Y[Dab][Dab][dDab][Dab]W[Dab][Tle]ST[dP]P))  4%
6. C[C@@H]1NC(=O)[C@H](C(C)(C)C)NC(=O)[C@H](CCN)NC(=O)[C@H](Cc2c[nH]c3ccccc23)NC(=O)[C@H](CCN)NC(=O)[C@@H](CCN)NC(=O)[C@H](CCCN)NC(=O)[C@H](CCN)NC(=O)[C@H](CC2CCCCC2)NC(=O)[C@H](CN)NC(=O)[C@H](Cc2c[nH]c3ccccc23)NC(=O)[C@@H]2Cc3ccc(O)cc3CN2C(=O)[C@H]2CCCN2C(=O)[C@H](CO)NC1=O [compound 61] (cyclo(AS[dP][Tic(7-OH)]W[Dap][Cha][Dab][Orn][dDab][Dab]W[Dab][Tle]))  2%
7. C[C@@H]1NC(=O)[C@H](C(C)(C)C)NC(=O)[C@H](CCN)NC(=O)[C@H](Cc2c[nH]c3ccccc23)NC(=O)[C@H](CCN)NC(=O)[C@@H](CCN)NC(=O)[C@H](CCCN)NC(=O)[C@H](CCN)NC(=O)[C@H](CC2CCCCC2)NC(=O)[C@H](CNC(=O)C(O)CO)NC(=O)[C@H](Cc2c[nH]c3ccccc23)NC(=O)[C@@H]2CCCN2C(=O)[C@H]2CCCN2C(=O)[C@H](CO)NC1=O (some centres unmarked) [compound 13] (cyclo(W[Dap](X3)[Cha][Dab][Orn][dDab][Dab]W[Dab][Tle]AS[dP]P))  2%
8. CCC[C@@H]1NC(=O)[C@@H]2CCCN2C(=O)[C@H]2CCCN2C(=O)[C@H]([C@@H](C)O)NC(=O)[C@H](CO)NC(=O)[C@H](C2CCCCC2)NC(=O)[C@H](CCN)NC(=O)[C@H](Cc2c[nH]c3ccccc23)NC(=O)[C@H](CCN)NC(=O)[C@@H](CCN)NC(=O)[C@H](CCN)NC(=O)[C@H](CCN)NC(=O)[C@H](Cc2ccc(O)cc2)NC(=O)[C@H](C)NC1=O [compound 132] (cyclo([Nva]AY[Dab][Dab][dDab][Dab]W[Dab][Chg]ST[dP]P))  1.5%
9. CC(C)C[C@@H]1NC(=O)[C@@H]2CCCN2C(=O)[C@H]2CCCN2C(=O)[C@H](CO)NC(=O)[C@H]([C@@H](C)O)NC(=O)[C@H](C(C)(C)C)NC(=O)[C@H](CCN)NC(=O)[C@H](Cc2c[nH]c3ccccc23)NC(=O)[C@H](CCN)NC(=O)[C@@H](CCN)NC(=O)[C@H](CCCN)NC(=O)[C@H](CCN)NC(=O)[C@H](Cc2ccc(O)cc2)NC(=O)[C@H](CCN)NC1=O [compound 148] (cyclo(L[Dab]Y[Dab][Orn][dDab][Dab]W[Dab][Tle]TS[dP]P))  1%
10. CC(C)C[C@@H]1NC(=O)[C@@H]2CCCN2C(=O)[C@H]2CCCN2C(=O)[C@H](CO)NC(=O)[C@H](CO)NC(=O)[C@H](Cc2c[nH]c3ccccc23)NC(=O)[C@H](CCN)NC(=O)[C@H](Cc2c[nH]c3ccccc23)NC(=O)[C@H](CCN)NC(=O)[C@@H](CCN)NC(=O)[C@H](CCCN)NC(=O)[C@H](CCN)NC(=O)[C@H](Cc2ccc(O)cc2)NC(=O)[C@H](CO)NC1=O [compound 111] (cyclo(LSY[Dab][Orn][dDab][Dab]W[Dab]WSS[dP]P))  1%
11. CCC[C@@H]1NC(=O)[C@@H]2CCCN2C(=O)[C@H]2CCCN2C(=O)[C@H](CO)NC(=O)[C@H](C)NC(=O)[C@H](C(C)(C)C)NC(=O)[C@H](CCN)NC(=O)[C@H](Cc2c[nH]c3ccccc23)NC(=O)[C@H](CCN)NC(=O)[C@@H](CCN)NC(=O)[C@H](CCCN)NC(=O)[C@H](CCN)NC(=O)[C@H](Cc2c[nH]c3ccccc23)NC(=O)[C@H](CO)NC1=O [compound 80] (cyclo([Nva]SW[Dab][Orn][dDab][Dab]W[Dab][Tle]AS[dP]P))  1%
12. CC[C@H](C)[C@@H]1NC(=O)[C@@H]2CCCN2C(=O)[C@H]2CCCN2C(=O)[C@H](CO)NC(=O)[C@H](C)NC(=O)[C@H](C(C)(C)C)NC(=O)[C@H](CCN)NC(=O)[C@H](Cc2c[nH]c3ccccc23)NC(=O)[C@H](CCN)NC(=O)[C@H](CCN)NC(=O)[C@H](CCCN)NC(=O)[C@H](CCN)NC(=O)[C@H](CC2CCCCC2)NC(=O)[C@H](CO)NC1=O [compound 142] (cyclo(IS[Cha][Dab][Orn][Dab][Dab]W[Dab][Tle]AS[dP]P))  1%
13. C[C@@H]1NC(=O)[C@H](C(C)(C)C)NC(=O)[C@H](CCN)NC(=O)[C@H](Cc2c[nH]c3ccccc23)NC(=O)[C@H](CCN)NC(=O)[C@@H](CCN)NC(=O)[C@H](CCCN)NC(=O)[C@H](CCN)NC(=O)[C@H](Cc2ccc(O)cc2)NC(=O)[C@H](CO)NC(=O)[C@H](CC(F)(F)F)NC(=O)[C@@H]2CCCN2C(=O)[C@H]2CCCN2C(=O)[C@H](CO)NC1=O [compound 156] (cyclo([Abu(4,4,4-F3)]SY[Dab][Orn][dDab][Dab]W[Dab][Tle]AS[dP]P))  1%
14. CC(C)C[C@@H]1NC(=O)[C@@H]2[C@@H](O)CCN2C(=O)[C@H]2CCCN2C(=O)[C@H](CO)NC(=O)[C@H](CNC(N)=O)NC(=O)[C@H](C(C)(C)C)NC(=O)[C@H](CCN)NC(=O)[C@H](Cc2c[nH]c3ccccc23)NC(=O)[C@H](CCN)NC(=O)[C@@H](CCN)NC(=O)[C@H](CCCN)NC(=O)[C@H](CCN)NC(=O)[C@H](CC2CCCCC2)NC(=O)[C@H](CO)NC1=O [compound 59] (cyclo([Cha][Dab][Orn][dDab][Dab]W[Dab][Tle][Dap(CONH2)]S[dP][Pro(3S-OH)]LS))  1%
15. CC(C)C[C@@H]1NC(=O)[C@@H]2CCCN2C(=O)[C@H]2CCCN2C(=O)[C@H](CO)NC(=O)[C@H](C)NC(=O)[C@H](C(C)(C)C)NC(=O)[C@H](CCN)NC(=O)[C@H](Cc2c[nH]c3ccccc23)NC(=O)[C@H](CCN)NC(=O)[C@@H](CCN)NC(=O)[C@H](CCCN)NC(=O)[C@H](CCN)NC(=O)[C@H](CC2CCCCC2)NC(=O)[C@H](CNC(=O)NC(C)C)NC1=O [compound 40] (cyclo(L[Dap]([CO-NHiPr])[Cha][Dab][Orn][dDab][Dab]W[Dab][Tle]AS[dP]P))  1%
16. CC(C)C[C@@H]1NC(=O)[C@@H]2CCCN2C(=O)[C@H]2CCCN2C(=O)[C@H](CO)NC(=O)[C@H](CC(N)=O)NC(=O)[C@H](C(C)(C)C)NC(=O)[C@H](CCN)NC(=O)[C@H](Cc2c[nH]c3ccccc23)NC(=O)[C@H](CCN)NC(=O)[C@@H](CCN)NC(=O)[C@H](CCCN)NC(=O)[C@H](CCN)NC(=O)[C@H](Cc2ccc(O)cc2)NC(=O)[C@H]([C@@H](C)O)NC1=O [compound 119] (cyclo(LTY[Dab][Orn][dDab][Dab]W[Dab][Tle]NS[dP]P))  1%
17. CC(C)C[C@@H]1NC(=O)[C@@H]2CCCN2C(=O)[C@H]2CCCN2C(=O)[C@H](CO)NC(=O)[C@H]([C@@H](C)O)NC(=O)[C@H](C(C)(C)C)NC(=O)[C@H](CCN)NC(=O)[C@H](Cc2c[nH]c3ccccc23)NC(=O)[C@H](CCN)NC(=O)[C@@H](CCN)NC(=O)[C@H](CCCN)NC(=O)[C@H](CCN)NC(=O)[C@H](Cc2ccc(O)cc2)NC(=O)[C@H]([C@@H](C)O)NC1=O [compound 122] (cyclo(LTY[Dab][Orn][dDab][Dab]W[Dab][Tle]TS[dP]P))  0%
